Where “and” joins values, the source holds several entries; their conditions need not be identical. Identical values can stand only once. Records with an inconclusive call do not appear.
System: Lewis lung carcinoma i.m., BDF1 mice, T/C %
Assay: NCI In Vivo Anticancer Drug Screen. Data for tumor model Lewis Lung Carcinoma (intramuscular) in B6D2F1 (BDF1) mice
In short: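 Antitumour activity is assessed in transplanted-tumour mice. Endpoint is survival or tumour size, normalised to vehicle-dosed controls (T/C).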

[1] = endpoint: mean tumor weight, dose: 0.5 mg/kg/injection, schedule: Q01DX011 (ip), vehicle: water, higher = larger tumour
[2] = endpoint: mean tumor weight, dose: 1.0 mg/kg/injection, schedule: Q01DX011 (ip), vehicle: water, higher = larger tumour
[3] = endpoint: mean tumor weight, dose: 25.0 mg/kg/injection, schedule: Q01DX011 (ip), vehicle: saline, higher = larger tumour
[4] = endpoint: mean tumor weight, dose: 50.0 mg/kg/injection, schedule: Q01DX011 (ip), vehicle: saline, higher = larger tumour
[5] = endpoint: mean tumor weight, dose: 100.0 mg/kg/injection, schedule: Q01DX011 (ip), vehicle: saline, higher = larger tumour
[6] = endpoint: mean tumor weight, dose: 200.0 mg/kg/injection, schedule: Q01DX011 (ip), vehicle: saline, higher = larger tumour
[7] = endpoint: median survival time, dose: 25.0 mg/kg/injection, schedule: Q01DX011 (ip), vehicle: saline, higher = longer survival
[8] = endpoint: median survival time, dose: 50.0 mg/kg/injection, schedule: Q01DX011 (ip), vehicle: saline, higher = longer survival
[9] = endpoint: median survival time, dose: 100.0 mg/kg/injection, schedule: Q01DX011 (ip), vehicle: saline, higher = longer survival
[10] = endpoint: median survival time, dose: 400.0 mg/kg/injection, schedule: Q01DX011 (ip), vehicle: saline, higher = longer survival

O=C(CCBr)N1CCN(C(=O)CCBr)CC1
T/C (endpoint: mean tumor weight, dose: 50.0 mg/kg/injection, schedule: Q01DX011 (ip), vehicle: steriod suspending solution, higher = larger tumour): 73 % of control
T/C (endpoint: mean tumor weight, dose: 100.0 mg/kg/injection, schedule: Q01DX011 (ip), vehicle: steriod suspending solution, higher = larger tumour): 73 % of control
T/C (endpoint: mean tumor weight, dose: 200.0 mg/kg/injection, schedule: Q01DX011 (ip), vehicle: steriod suspending solution, higher = larger tumour): 37 % of control

CC[n+]1ccc(Nc2ccc(NC(=O)c3ccc(Nc4cc[n+](CC)c5ccc(N)cc45)cc3)cc2)cc1
T/C (endpoint: mean tumor weight, dose: 0.12 mg/kg/injection, schedule: Q01DX011 (ip), vehicle: water, higher = larger tumour): 109 % of control
T/C (endpoint: mean tumor weight, dose: 0.25 mg/kg/injection, schedule: Q01DX011 (ip), vehicle: water, higher = larger tumour): 83 % of control
T/C [1]: 87 % of control
T/C [2]: 100 % of control
T/C (endpoint: mean tumor weight, dose: 2.0 mg/kg/injection, schedule: Q01DX011 (ip), vehicle: water, higher = larger tumour): 67 % of control
T/C (endpoint: median survival time, dose: 0.12 mg/kg/injection, schedule: Q01DX011 (ip), vehicle: water, higher = longer survival): 88 % of control
T/C (endpoint: median survival time, dose: 0.25 mg/kg/injection, schedule: Q01DX011 (ip), vehicle: water, higher = longer survival): 88 % of control
T/C (endpoint: median survival time, dose: 0.5 mg/kg/injection, schedule: Q01DX011 (ip), vehicle: water, higher = longer survival): 92 % of control
T/C (endpoint: median survival time, dose: 0.88 mg/kg/injection, schedule: Q01DX007 (sc), vehicle: saline, higher = longer survival): 87 % of control
T/C (endpoint: median survival time, dose: 1.0 mg/kg/injection, schedule: Q01DX011 (ip), vehicle: water, higher = longer survival): 104 % of control
T/C (endpoint: median survival time, dose: 1.5 mg/kg/injection, schedule: Q01DX007 (sc), vehicle: saline, higher = longer survival): 110 % of control
T/C (endpoint: median survival time, dose: 2.0 mg/kg/injection, schedule: Q01DX011 (ip), vehicle: water, higher = longer survival): 106 % of control
T/C (endpoint: median survival time, dose: 2.5 mg/kg/injection, schedule: Q01DX007 (sc), vehicle: saline, higher = longer survival): 112 % of control
T/C (endpoint: median survival time, dose: 4.1 mg/kg/injection, schedule: Q01DX007 (sc), vehicle: saline, higher = longer survival): 89 % of control
T/C (endpoint: median survival time, dose: 6.8 mg/kg/injection, schedule: Q01DX007 (sc), vehicle: saline, higher = longer survival): 66 % of control

COC(=O)C[C@](O)(CCC(C)(C)O)C(=O)O[C@@H]1C(OC)=C[C@]23CCCN2CCc2cc4c(cc2[C@H]13)OCO4
T/C (endpoint: mean tumor weight, dose: 0.25 mg/kg/injection, schedule: Q01DX011 (ip), vehicle: saline, higher = larger tumour): 103 % of control
T/C (endpoint: mean tumor weight, dose: 0.5 mg/kg/injection, schedule: Q01DX011 (ip), vehicle: saline, higher = larger tumour): 104 % of control
T/C [1]: 75 % of control
T/C [2]: 106 % of control
T/C (endpoint: median survival time, dose: 0.25 mg/kg/injection, schedule: Q01DX011 (ip), vehicle: saline, higher = longer survival): 114 % of control
T/C (endpoint: median survival time, dose: 0.5 mg/kg/injection, schedule: Q01DX011 (ip), vehicle: saline, higher = longer survival): 114 % of control

CCCC(=O)Nc1ncnc2c1ncn2C1OC2COP(=O)(O)OC2C1OC(=O)CCC (stereo not drawn)
T/C [3]: 107 % of control
T/C [4]: 106 % of control
T/C [5]: 114 % of control
T/C [6]: 96 % of control
T/C (endpoint: mean tumor weight, dose: 400.0 mg/kg/injection, schedule: Q01DX011 (ip), vehicle: saline, higher = larger tumour): 90 % of control
T/C [7]: 118 % of control
T/C [8]: 118 % of control
T/C [9]: 100 % of control
T/C [10]: 104 % of control

C[C@]12C=CC(=O)C=C1CC[C@@H]1[C@@H]2C(=O)C[C@@]2(C)[C@H]1CC[C@]2(O)C(=O)CO
T/C (endpoint: mean tumor weight, dose: 23.0 mg/kg/injection, schedule: Q01DX009 (ip), vehicle: water, higher = larger tumour): 70 % of control
T/C [3]: 45 % of control
T/C (endpoint: mean tumor weight, dose: 39.0 mg/kg/injection, schedule: Q01DX009 (ip), vehicle: water, higher = larger tumour): 50 % of control
T/C [4]: 36 % of control
T/C [5]: 17 % of control
T/C [6]: 5 % of control
T/C (endpoint: median survival time, dose: 23.0 mg/kg/injection, schedule: Q01DX009 (ip), vehicle: none, higher = longer survival): 109 % of control
T/C (endpoint: median survival time, dose: 23.0 mg/kg/injection, schedule: Q01DX009 (ip), vehicle: water, higher = longer survival): 106 % of control
T/C (endpoint: median survival time, dose: 25.0 mg/kg/injection, schedule: Q01DX011 (ip), vehicle: carboxymethylcellulose (CMC), higher = longer survival): 106 % of control and 113 % of control
T/C [7]: 112 % of control
T/C (endpoint: median survival time, dose: 25.0 mg/kg/injection, schedule: Q01DX011 (ip), vehicle: water, higher = longer survival): 110 % of control
T/C (endpoint: median survival time, dose: 39.0 mg/kg/injection, schedule: Q01DX009 (ip), vehicle: none, higher = longer survival): 104 % of control
T/C (endpoint: median survival time, dose: 39.0 mg/kg/injection, schedule: Q01DX009 (ip), vehicle: water, higher = longer survival): 90 % of control
T/C (endpoint: median survival time, dose: 50.0 mg/kg/injection, schedule: Q01DX011 (ip), vehicle: carboxymethylcellulose (CMC), higher = longer survival): 115 % of control and 121 % of control
T/C [8]: 104 % of control
T/C (endpoint: median survival time, dose: 50.0 mg/kg/injection, schedule: Q01DX011 (ip), vehicle: water, higher = longer survival): 108 % of control
T/C (endpoint: median survival time, dose: 52.0 mg/kg/injection, schedule: Q01DX007 (sc), vehicle: saline, higher = longer survival): 118 % of control and 119 % of control
T/C (endpoint: median survival time, dose: 65.0 mg/kg/injection, schedule: Q01DX009 (ip), vehicle: none, higher = longer survival): 95 % of control
T/C (endpoint: median survival time, dose: 86.0 mg/kg/injection, schedule: Q01DX007 (sc), vehicle: saline, higher = longer survival): 95 % of control and 113 % of control
T/C [9]: 102 % of control
T/C (endpoint: median survival time, dose: 100.0 mg/kg/injection, schedule: Q01DX011 (ip), vehicle: water, higher = longer survival): 94 % of control
T/C (endpoint: median survival time, dose: 108.0 mg/kg/injection, schedule: Q01DX009 (ip), vehicle: none, higher = longer survival): 46 % of control
T/C (endpoint: median survival time, dose: 144.0 mg/kg/injection, schedule: Q01DX007 (sc), vehicle: saline, higher = longer survival): 105 % of control
T/C (endpoint: median survival time, dose: 180.0 mg/kg/injection, schedule: Q01DX009 (ip), vehicle: none, higher = longer survival): 42 % of control
T/C (endpoint: median survival time, dose: 240.0 mg/kg/injection, schedule: Q01DX007 (sc), vehicle: saline, higher = longer survival): 68 % of control

N#C[C@@H]1C2C=CC(CC2)[C@H]1C#N
T/C (endpoint: mean tumor weight (est.), dose: 0.15 mg/kg/injection, schedule: Q01DX011 (ip), vehicle: saline, higher = larger tumour): 56 % of control
T/C (endpoint: mean tumor weight (est.), dose: 0.3 mg/kg/injection, schedule: Q01DX011 (ip), vehicle: saline, higher = larger tumour): 83 % of control
T/C (endpoint: mean tumor weight (est.), dose: 0.6 mg/kg/injection, schedule: Q01DX011 (ip), vehicle: saline, higher = larger tumour): 98 % of control
T/C (endpoint: mean tumor weight (est.), dose: 1.2 mg/kg/injection, schedule: Q01DX011 (ip), vehicle: saline, higher = larger tumour): 95 % of control

CCN1/C(=C/C=C/c2oc3ccccc3[n+]2CC)Oc2ccccc21
T/C (endpoint: mean tumor weight (est.), dose: 3.7 micrograms/kg/injection, schedule: Q01DX011 (ip), vehicle: saline, higher = larger tumour): 87 % of control
T/C (endpoint: mean tumor weight (est.), dose: 75.0 micrograms/kg/injection, schedule: Q01DX011 (ip), vehicle: saline, higher = larger tumour): 99 % of control
T/C (endpoint: mean tumor weight (est.), dose: 150.0 micrograms/kg/injection, schedule: Q01DX011 (ip), vehicle: saline, higher = larger tumour): 103 % of control
T/C (endpoint: mean tumor weight (est.), dose: 300.0 micrograms/kg/injection, schedule: Q01DX011 (ip), vehicle: saline, higher = larger tumour): 86 % of control
T/C (endpoint: median survival time, dose: 37.5 micrograms/kg/injection, schedule: Q01DX011 (ip), vehicle: saline, higher = longer survival): 93 % of control
T/C (endpoint: median survival time, dose: 300.0 micrograms/kg/injection, schedule: Q01DX011 (ip), vehicle: saline, higher = longer survival): 87 % of control

OCC1OC(n2cnc3c(Cl)ncnc32)C(O)C1O (stereo not drawn)
T/C (endpoint: mean tumor weight (est.), dose: 25.0 mg/kg/injection, schedule: Q01DX011 (ip), vehicle: saline, higher = larger tumour): 121 % of control
T/C (endpoint: mean tumor weight (est.), dose: 50.0 mg/kg/injection, schedule: Q01DX011 (ip), vehicle: saline, higher = larger tumour): 91 % of control
T/C (endpoint: mean tumor weight (est.), dose: 100.0 mg/kg/injection, schedule: Q01DX011 (ip), vehicle: saline, higher = larger tumour): 117 % of control
T/C (endpoint: mean tumor weight (est.), dose: 400.0 mg/kg/injection, schedule: Q01DX011 (ip), vehicle: saline, higher = larger tumour): 94 % of control
T/C (endpoint: mean tumor weight, dose: 25.0 mg/kg/injection, schedule: Q01DX011 (ip), vehicle: Klucel (hydroxypropylcellulose) (HPC), higher = larger tumour): 44 % of control
T/C (endpoint: mean tumor weight, dose: 200.0 mg/kg/injection, schedule: Q01DX011 (ip), vehicle: Klucel (hydroxypropylcellulose) (HPC), higher = larger tumour): 88 % of control
T/C [7]: 100 % of control
T/C (endpoint: median survival time, dose: 25.0 mg/kg/injection, schedule: Q01DX012 (ip), vehicle: Klucel (hydroxypropylcellulose) (HPC), higher = longer survival): 95 % of control
T/C [9]: 98 % of control
T/C (endpoint: median survival time, dose: 200.0 mg/kg/injection, schedule: Q01DX012 (ip), vehicle: Klucel (hydroxypropylcellulose) (HPC), higher = longer survival): 104 % of control
T/C [10]: 92 % of control

COC(=O)C1Cc2cncn2C(=O)N1 (stereo not drawn)
T/C (endpoint: median survival time, dose: 4.0 mg/kg/injection, schedule: Q01DX009 (ip), vehicle: water, higher = longer survival): 113 % of control
T/C (endpoint: median survival time, dose: 8.0 mg/kg/injection, schedule: Q01DX009 (ip), vehicle: water, higher = longer survival): 108 % of control
T/C (endpoint: median survival time, dose: 16.0 mg/kg/injection, schedule: Q01DX009 (ip), vehicle: water, higher = longer survival): 104 % of control
T/C (endpoint: median survival time, dose: 32.0 mg/kg/injection, schedule: Q01DX009 (ip), vehicle: water, higher = longer survival): 103 % of control
T/C (endpoint: median survival time, dose: 64.0 mg/kg/injection, schedule: Q01DX009 (ip), vehicle: water, higher = longer survival): 98 % of control

O=C(O)C1CSCN1 (stereo not drawn)
T/C (endpoint: median survival time, dose: 12.5 mg/kg/injection, schedule: Q01DX011 (ip), vehicle: saline, higher = longer survival): 118 % of control
T/C [7]: 105 % of control
T/C [8]: 97 % of control
T/C [9]: 105 % of control
